Measured values: US20260060970A1, “Use of a Therapeutic Agent with Phosphodiesterase-7 Inhibitory Activity for the Treatment and Prevention of Diseases Associated with Chronic Fatigue, Exhaustion and/or Exertional Intolerance” (MITODICURE GMBH, priority 2022, published 2026)

Columns and labels:
PDE7 = PDE7 enzymatic assay, IC50 determination (PDE7); type: biochemical; settings: human recombinant enzyme, 0.1 μM FAM-cAMP, 30 min 25° C.
Description: (§1) The ability of compounds to inhibit PDE7 may be measured using the following assay protocal: Assay methods for IC50 determination of PDE7 and variants involve as enzyme source human recombinant insect Sf9 cells. The substrate is 0.1 μM FAM-cAMP and the vehicle is 1.0% DMSO or 1.0% PEG 400. Pre-incubation time and temperature are 15 minutes at 25° C. and incubation time and temperature are 30 minutes at 25° C. The incubation buffer consists of 10 mM Tris-HCl, PH 7.2, 10 mM MgCl2, 0.05% NaN3, and 0.1% phosphate-free BSA. The quantitation method used is spectrofluorimetric quantitation of Fluorescein-AMP-IMAP. IBMX reference standards are run as an integral part of each assay to ensure the validity of the results obtained. The IC50 is the concentration of the compound (inhibitor) tested in the assay which makes it possible to reduce the enzymatic activity of PDE7 by 50%. IC50 values are finally determined by a non-linear, least squares regression analysis using MathIQ™ (ID Business Solutions Ltd., UK).
(§2) The compounds to be tested as PDE7 inhibitors were initially dissolved in vehicle at a concentration of 30 mM. These solutions were tested as the highest test concentration and then further diluted in cascade always in a ratio of 1:6 to obtain solutions with the desired lower test concentrations. Each assay was carried out in duplicate.

PDE7 enzyme = settings: cited from earlier work
PDE7A = biological target: T1, PDE7A (Homo sapiens, UniProt Q13946); assay: PDE7 enzymatic assay, IC50 determination (PDE7A); type: biochemical; settings: human recombinant enzyme, 0.1 μM FAM-cAMP, 30 min 25° C.
T1 construct: host or cells: Sf9 insect cells
Description: as §1, §2

[1] = system: isolated rat soleus muscle; assay: Ex vivo model: residual contractile force of isolated rat soleus muscle in high KCl buffer (Na+/K+ATPase activation); settings: for Mean residual contractile force in % (SEM in %): after 30 min in KCl 12.5 mM buffer
From the text: Muscular fatigue and loss of force (e.g., loss of handgrip strength) is a hallmark in ME/CFS patients. A main target of PDE7 inhibition is the skeletal muscle whose energetic function is deeply disturbed in ME/CFS and which is presumed to be very important in the symptomatology of ME/CFS. Insufficient stimulation of the Na^+/K^+ATPase plays a key role in the development of the disturbances by a rise in intramuscular sodium that finally leads to calcium overload. The latter causes a deep functional energetic disturbance or damage. The isolated rat muscle either soleus muscle or extensor digitorum longus muscle is a well-characterized and well-validated model for the study of the function of the Na^+/K^+ATPase. The isolated rat soleus muscle is particularly appropriate for experiments ex vivo as it is very thin so that there is no need for blood supply. […] In the experimental setting used, the high KCl concentration buffer causes partial depolarization that leads to sodium influx to disturb and to decrease excitability to subsequently reduce muscle force. Stimulation of Na^+/K^+ATPase lowers intracellular sodium levels towards physiological levels to restore excitability and muscular force during electrical stimulation.
The decline in force in the soleus muscle can be considered as muscular fatigue and related to the loss of hand grip muscular strength in ME/CFS patients. As the phosphodiesterase isoenzyme subtype 7 (PDE7) is the predominant PDE isoenzyme in skeletal muscle to raise cAMP this ex vivo model is suited for the testing the effect of PDE7 inhibitors and in particular their effect on force generation disturbed by mechanisms that worsen excitability or the energetic situation. […] High level activity of Na^+/K^+ATPase stimulated by cAMP can counteract the decrease in excitability and the loss of force.
Muscle preparation and incubation: Female Sprague Dawley rats of 5 weeks of age were used. After isoflurane anesthesia and cervical dislocation the intact soleus muscles of the animals were dissected. The soleus muscles were mounted at resting length in a vertical position between two field stimulation electrodes (thick copper wires) in organ bathes containing 15 mL incubation medium. The lower end of the muscle was fixed to a clip fixed to the bottom of the organ bath, the upper end of the muscle was fixed to an isometric force transducer (Force transducer K300 Hugo Sachs) by a clip allowing measurement of isometric contractions, and a tension of 100 mN was applied.
Force measurement: The experimental set-up used for force measurements allowed for the simultaneous recordings from 6 muscles in separate incubation chambers in parallel. Force was recorded and stored with a Notocord HEM data acquisition system. […] Incubation took place at 30° C. […] Electrical stimulation protocol: After an equilibration period of 30 min muscles were field-stimulated to deliver optimal force at 83 Hz, 2-3 ms pulses, 12 V (biphasic), 0.2-0.5 s train width with a Hugo Sachs stimulator (HSE). […] Stimulations were then performed every 5 min for 30 min. […] Two control groups were included.
The residual contractile force after 30 min in high KCl buffer was chosen as the efficacy parameter and related to the last value of stimulated force in the initial buffer in the same organ bath. The percentages of residual force were compared between the different groups and used for statistical calculation.

PDE7B = biological target: T2, PDE7B (Homo sapiens, UniProt Q9NP56); assay: PDE7 enzymatic assay, IC50 determination (PDE7B); type: biochemical; settings: human recombinant enzyme, 0.1 μM FAM-cAMP, 30 min 25° C.
T2 construct: host or cells: Sf9 insect cells
Description: as §1, §2

T1 sequence (Q13946 whole entry): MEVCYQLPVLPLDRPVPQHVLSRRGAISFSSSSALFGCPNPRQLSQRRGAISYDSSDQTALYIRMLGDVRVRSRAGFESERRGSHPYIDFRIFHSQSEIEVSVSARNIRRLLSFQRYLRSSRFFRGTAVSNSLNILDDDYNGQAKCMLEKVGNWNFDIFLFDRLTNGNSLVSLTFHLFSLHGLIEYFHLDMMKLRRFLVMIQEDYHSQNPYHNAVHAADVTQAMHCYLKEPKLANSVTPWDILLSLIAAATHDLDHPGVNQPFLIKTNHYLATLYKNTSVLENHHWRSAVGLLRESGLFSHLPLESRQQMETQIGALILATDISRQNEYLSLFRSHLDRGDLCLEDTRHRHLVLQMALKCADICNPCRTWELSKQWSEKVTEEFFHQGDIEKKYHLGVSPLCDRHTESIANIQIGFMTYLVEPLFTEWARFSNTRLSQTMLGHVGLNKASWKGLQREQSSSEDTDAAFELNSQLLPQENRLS
T2 sequence (Q9NP56 whole entry): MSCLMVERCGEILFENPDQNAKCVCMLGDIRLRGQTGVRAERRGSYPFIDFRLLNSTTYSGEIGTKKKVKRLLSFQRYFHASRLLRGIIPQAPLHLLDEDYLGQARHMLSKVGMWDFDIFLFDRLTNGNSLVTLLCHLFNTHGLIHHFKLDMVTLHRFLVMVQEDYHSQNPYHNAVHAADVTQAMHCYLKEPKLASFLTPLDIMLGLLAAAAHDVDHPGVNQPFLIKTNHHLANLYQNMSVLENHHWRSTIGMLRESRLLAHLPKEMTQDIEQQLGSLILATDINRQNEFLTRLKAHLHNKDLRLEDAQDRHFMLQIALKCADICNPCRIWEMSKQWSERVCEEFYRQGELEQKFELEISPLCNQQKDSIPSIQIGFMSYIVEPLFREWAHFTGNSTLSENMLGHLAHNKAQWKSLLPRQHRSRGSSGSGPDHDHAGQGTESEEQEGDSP

Row | IC50 (PDE7) [nM] | IC50 (PDE7A) [nM] | Compound | other results
1 | 19 |  | CC(=O)N1CCN([C@H]2CC[C@H](NC(=O)c3cc4c(C)nn(C5CCOCC5)c4s3)CC2)CC1 [Formula No. 6F] | 
2 | 20 |  | Cc1nn(C2CCCCC2)c2sc(C(=O)Nc3ccc(N4CCNC4=O)nc3)cc12 [Formula No. 6A] | 
3 |  |  | COc1ccc(C2CNC(=O)C2)cc1OC1CCCC1 (stereo not shown) [rolipram] | inhibition of PDE7 by rolipram (PDE7 enzyme): not inhibited
4 | 37 |  | CC(=O)Nc1ccc(NC(=O)c2cc3c(C)nn(C4CCCCC4)c3s2)cc1 [Formula No. 6D] | 
5 |  |  | CC(C)(C)NCC(O)c1ccc(O)c(CO)c1 (stereo not shown) [Salbutamol, reference compound] | Mean residual contractile force in % (SEM in %) ([1]; salbutamol alone 1 μM): 26.5 (3.9); n = 30%
6 | 34 |  | Cc1nn(C2CCCCC2)c2sc(C(=O)N[C@H](C)CN3C(=O)CNC3=O)cc12 [Formula No. 6H] | 
7 | 20 |  | Cc1nn(C2CCCCC2)c2sc(C(=O)NCC(C)(C)CN3C(=O)CNC3=O)cc12 [Formula No. 6G] | 
8 | 14 |  | Cc1nn(C2CCCCC2)c2sc(C(=O)Nc3ccc(C(=O)N(C)C)cc3)cc12 [Formula No. 6C] | 
9 | 33 | 11.1 | CNC(=O)c1ccc(NC(=O)c2cc3c(C)nn(C4CCCCC4)c3s2)cn1 [Formula No. 6B] | IC50 (PDE7B): 53 nM; Mean residual contractile force in % (SEM in %) ([1]; 0.99 μM in the presence of salbutamol 1 μM): 50.7 (3.6); n = 6; p < 0.05%
10 | 24 |  | Cc1nn(C2CCOCC2)c2sc(C(=O)N[C@H]3CC[C@H](N4CCOCC4)CC3)cc12 [Formula No. 6E] | 
11 |  | 26 | O=C1Nc2c(Cl)ccc(O[C@H]3C[C@H](C(=O)O)C3)c2C2(CCCCC2)N1 [Formula No. 44A] | IC50 (PDE7B): 72 nM; Mean residual contractile force in % (SEM in %) ([1]; 26 nM in the presence of salbutamol 1 μM): 63.5 (7.8); n = 6; p < 0.01%
12 |  | 14.2 | COc1ccc(Cn2c(=O)c3cc(OC(CF)CF)c(F)cc3n(C3CCN(C=O)CC3)c2=O)cc1OC [Formula No. 55E] | IC50 (PDE7B): 83 nM; Mean residual contractile force in % (SEM in %) ([1]; 29 nM in the presence of salbutamol 1 μM): 69.3 (4.1); n = 5; p < 0.01%
13 |  |  | S=c1[nH]c2ccccc2c(=S)n1-c1ccccc1 [Formula No. 42A, 3-phenyl-2,4(1H,3H)-quinazolinedithione] | Mean residual contractile force in % (SEM in %) ([1]; 3.5 μM in the presence of salbutamol 1 μM): 48.5 (8.6); n = 7; p < 0.05%
14 |  | 42000 | OCCN(CCO)c1nc(N2CCCCC2)c2nc(N(CCO)CCO)nc(N3CCCCC3)c2n1 [Dipyridamole, 2,2′,2″,2′″-[[4,8-Di(piperidin-1-yl)pyrimido[5,4-d]pyrimidine-2,6-diyl]dinitrilo]tetraethanol, reference compound] | Mean residual contractile force in % (SEM in %) ([1]; 30 μM in the presence of salbutamol 1 μM): 46.3 (6.3); n = 15; p < 0.01%; effect on residual contractile force compared with salbutamol alone ([1]; test compound plus salbutamol 1 μM, KCl 12.5 mM buffer): numerically stronger effect than salbutamol alone
15 |  | 0.3 | O=C1Nc2c(Cl)ccc(Oc3ccccc3-c3nnn[nH]3)c2C2(CCCCC2)N1 [Formula No. 35A] | IC50 (PDE7B): 0.9 nM
16 |  |  | Cc1ccc([N+](=O)[O-])cc1S(=O)(=O)N(C)C [Formula No. 8A] | Mean residual contractile force in % (SEM in %) ([1]; 4.5 μM in the presence of salbutamol 1 μM): 80.2 (6.0); n = 15; p < 0.001%

Row | Compound | IC50 (PDE7) [nM] | IC50 (PDE7A) [nM] | other results
17 | CC(C)Cn1c(=O)n(C)c(=O)c2[nH]cnc21 [IBMX, 3-isobutyl-1-methylxanthine, reference compound] |  | 10000 | 
18 | O=CN1CCC(n2c(=O)n(Cc3ccc(-c4cccs4)cc3)c(=O)c3cc(OC(CF)CF)c(F)cc32)CC1 [Formula No. 55J] | < 100 |  | 
